What was measured:
mushroom tyrosinase = biological target: T1, mushroom tyrosinase (Agaricus bisporus, UniProt C7FF04); experiment: Kinetic studies of mushroom tyrosinase inhibition (L-DOPA; Lineweaver–Burk and Dixon plots); assay type: biochemical; details: for mode of action (type of inhibition): Lineweaver–Burk plots; for Ki: determined using Dixon plots, L-DOPA substrate
T1 construct: purchased Sigma-Aldrich
Experimental: The Michael constants (KM), inhibition constants (Ki), and Lineweaver–Burk and Dixon plots of the analogs were used in order to determine their modes of action. […] The initial rates of dopachrome production in the reaction mixtures were calculated by measuring the increases in absorbance at 492 nm (ΔOD492/min) using a microplate reader (VersaMax™, Molecular Devices, Sunnyvale, CA, USA). The maximal reaction velocity (Vmax) was determined using Lineweaver–Burk plots (plots of the inverse of the reaction rate (1/V) versus the inverse of the substrate concentration (1/[S])) that were obtained using six different L-DOPA concentrations. The mode of action of each analog was determined using the convergence point of the four plot lines.
. Lineweaver–Burk plots were used in order to determine the modes of action of these four analogs (Figure 4). Mushroom tyrosinase inhibition plots were obtained using six different L-DOPA (substrate) concentrations and four different concentrations of each analog. […] On the other hand, the Michaelis–Menten constants (KM) increased upon the increase of the analogs’ concentrations (Table 3). The KM values of the analogs were 1.042, 1.193, 1.433, and 2.159 mM at analog 1 concentrations of 0, 1, 2, and 4 µM; 1.077, 2.117, 2.899, and 4.865 mM at analog 2 concentrations of 0, 2.5, 5, and 10 µM; […]; and 1.030, 1.243, 1.531, and 1.885 mM at analog 6 concentrations of 0, 1, 2, and 4 µM. The mean of the Vmax values that were determined from the Lineweaver–Burk plots was 0.0171 mM/min. In order to determine the inhibition constants (Ki) for the mushroom tyrosinase–analog complexes, the Lineweaver–Burk plots were converted into their corresponding Dixon plots (Figure 5), in which 1/V (where V is the initial reaction velocity) was plotted against the inhibitor concentration [I] at different L-DOPA [S] concentrations.

[1] = DPPH radical scavenging activity assay; details: 1 mM, 30 min in the dark
Experimental: The effects of the (Z)-BPTT analogs 1–13 on DPPH radical scavenging activities were investigated as previously described with slight modification. Briefly, 180 μL of 0.2 mM DPPH in methanol was added to 96-well plates and then 20 μL of one of the (Z)-BPTT analogs 1–13 (10 mM in DMSO) or the positive control (10 mM L-ascorbic acid in distilled water) was added and mixed. The 96-well plates were incubated in the dark for 30 min and then the well optical densities were measured at 517 nm using a VersaMax™ microplate reader (Molecular Devices, Sunnyvale, CA, USA). All of these experiments were performed independently in triplicate. The DPPH radical scavenging activities of the analogs were calculated using the following formula:Scavenging activity (%) = (Ac − As) × 100/Ac where Ac is the optical density of the non-treated control and As is the optical density of the tested material.
The DPPH (2,2-diphenyl-1-picrylhydrazyl) radical scavenging abilities of the (Z)-BPTT analogs were investigated using L-ascorbic acid (vitamin C) as a positive control. The final concentrations of the analogs and of the positive control in the test samples and in the DPPH methanol solution were 1 and 0.18 mM, respectively. The scavenging activities of the analogs were assessed by measuring their optical densities at 517 nm after standing the samples in the dark for 30 min.

[2] = ABTS free radical scavenging activity assay; details: 100 µM, 2 min in the dark
Experimental: ABTS free radical scavenging activity was used to evaluate the antioxidant activities of analogs 1–13, as previously described. […] This ABTS free radical solution was then diluted with absolute methanol to an absorbance of 0.70 ± 0.02 at 734 nm. Aliquots (10 µL) of the test samples (10% DMSO + 90% EtOH) were added at a final concentration of 100 µM to 90 µL of the diluted ABTS free radical solution and incubated for 2 min in the dark at room temperature. Absorbances were then measured at 734 nm using a VersaMax™ microplate reader (Molecular Devices, Sunnyvale, CA, USA). The ABTS free radical scavenging activities of the test analogs were calculated using the following formula:Scavenging activity (%) = (Ac − As) × 100/Ac where Ac is the optical density of the non-treated control and As is the optical density of the tested material.
The effects of analogs 1–13 on ABTS (2,2′-azino-bis(3-ethylbenzothiazoline-6-sulfonic acid)) free radical scavenging activity were investigated using trolox as a positive reference control. The concentrations of the analogs and trolox in the test samples were 100 µM. The free radical scavenging activities were assessed by measuring the optical densities at 734 nm after standing in the dark for 2 min. […] Analogs 7–10, with no hydroxyl groups on the β-phenyl ring, had weak ABTS and DPPH radical scavenging activities.

[3] = test system: intracellular ROS in B16F10 cells; experiment: Intracellular ROS scavenging activity assay (DCFH-DA, SIN-1); assay type: cell-based, murine; details: ≤ 20 µM, 10 µM SIN-1, B16F10 cells
Experimental: ROS scavenging activity was determined as has previously been described by Ali et al. and Lebel and Bondy. Briefly, DCFH-DA (2′,7′-dichlorodihydrofluorescein-diacetate) (2.5 mM; Molecular Probes, Eugene, OR, USA) mixed with esterase (1.5 units/mL) in a phosphate buffer (50 mM; pH 7.4) was incubated for 30 min at 37 °C and then placed on ice in the dark until it was required. In order to determine their intracellular ROS scavenging activities, B16F10 cells (1 × 10^4/well) were seeded in black 96-well plates and incubated for 24 h. The cells were then co-treated with the analogs and SIN-1 (3-morpholinosydnonimine) (10 µM), as previously described, for 2 h. DCFH-DA (20 µM) was added for 30 min in the dark and the fluorescence intensities of the oxidized DCFH were measured using a microplate reader (Tecan, Männedorf, Switzerland) at excitation and emission wavelengths of 485 and 530 nm, respectively. Trolox was used as the positive control.
We investigated the effects of the analogs on intracellular ROS (reactive oxygen species) because, reportedly, ROS might regulate melanogenesis in melanoma cells. The principle of the intracellular ROS assay that was used is that DCFH-DA (2′,7′-dichlorodihydrofluorescein diacetate) spreads across the cell membrane and is enzymatically hydrolyzed by esterases to DCFH (2′,7′-dichlorodihydrofluorescein), which reacts with ROS in order to generate DCF (2′,7′-dichlorofluorescein), which is fluorescent. Thus, the intracellular ROS scavenging activities of (Z)-BPTT analogs 1–3 and 6 were investigated in vitro using DCFH-DA. SIN-1 (3-morpholinosydnonimine) and trolox were used as a RNS/ROS generator [54] and a positive control, respectively.

[4] = Calculated log p (ChemDraw Ultra 12.0); details: from calculated log p 3.16 vs. –2.45
Text: In order to determine how well the (Z)-BPTT analogs are absorbed by skin, their log p (partition coefficient) values were examined using ChemDraw Ultra Ver. 12.0.

T1 sequence (C7FF04 1-392): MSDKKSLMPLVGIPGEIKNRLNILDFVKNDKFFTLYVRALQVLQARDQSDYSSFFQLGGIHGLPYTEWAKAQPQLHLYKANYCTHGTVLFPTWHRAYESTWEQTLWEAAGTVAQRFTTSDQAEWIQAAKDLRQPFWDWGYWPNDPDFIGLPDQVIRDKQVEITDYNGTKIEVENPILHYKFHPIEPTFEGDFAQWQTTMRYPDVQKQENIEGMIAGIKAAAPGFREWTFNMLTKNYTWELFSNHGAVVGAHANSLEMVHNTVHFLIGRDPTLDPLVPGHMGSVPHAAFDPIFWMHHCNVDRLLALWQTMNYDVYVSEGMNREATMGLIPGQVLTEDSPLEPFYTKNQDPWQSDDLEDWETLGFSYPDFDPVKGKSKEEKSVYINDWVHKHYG

SMILES | mode of action (type of inhibition) (mushroom tyrosinase) | Ki (mushroom tyrosinase) | DPPH radical scavenging activity [1] | ABTS free radical scavenging activity (in words) [2] | intracellular ROS scavenging activity [3] | ABTS free radical scavenging activity [2] | partition coefficient relative to kojic acid [4]
O=C1/C(=C/c2ccc(O)cc2)SC(=S)N1c1ccccc1 [Analog 1, (Z)-5-(4-Hydroxybenzylidene)-3-phenyl-2-thioxothiazolidin-4-one] | competitive | 4.67 µM | 14.7% | weak | did not show ROS scavenging activity |  | 
O=C1/C(=C/c2ccc(O)c(O)c2)SC(=S)N1c1ccccc1 [Analog 2, (Z)-5-(3,4-Dihydroxybenzylidene)-3-phenyl-2-thioxothiazolidin-4-one] | competitive | 3.18 µM | 92.2% |  | significantly and concentration-dependently reduced SIN-1-induced increases in the intracellular ROS activity and it did so to a greater extent than trolox | 96.9% | 10^5 fold
O=C1/C(=C/c2ccc(O)cc2O)SC(=S)N1c1ccccc1 [Analog 3, (Z)-5-(2,4-Dihydroxybenzylidene)-3-phenyl-2-thioxothiazolidin-4-one] | competitive | 0.708 µM | 57.0% |  |  | 82.0% | 10^5 fold
COc1ccc(/C=C2\SC(=S)N(c3ccccc3)C2=O)cc1O [Analog 6, (Z)-5-(3-Hydroxy-4-methoxybenzylidene)-3-phenyl-2-thioxothiazolidin-4-one] | competitive | 3.23 µM | 27.2% |  | did not show ROS scavenging activity |  | 

— PMC9137581, “Identification of a Novel Class of Anti-Melanogenic Compounds, (Z)-5-(Substituted benzylidene)-3-phenyl-2-thioxothiazolidin-4-one Derivatives, and Their Reactive Oxygen Species Scavenging Activities” (Antioxidants, 2022)
